Measurements as given in patent publication US20240158446A1, “CYCLIC COMPOUND HAVING SELECTIVE INHIBITORY ACTION ON KRAS OVER HRAS AND NRAS” (CHUGAI SEIYAKU KABUSHIKI KAISHA, priority 2021, published 2024).

How the values were obtained:
[1] = biological target: GDP-bound HRAS wild-type protein (Homo sapiens, UniProt P01112); test: Binding to HRAS by surface plasmon resonance (SPR), Single Cycle Kinetics; details: SPR, GDP-bound HRAS wild-type protein vs GDP-bound KRAS wild-type protein
[2] = biological target: GDP-bound NRAS wild-type protein (Homo sapiens, UniProt P01111); test: Binding to NRAS by surface plasmon resonance (SPR), Single Cycle Kinetics; details: SPR, GDP-bound NRAS wild-type protein vs GDP-bound KRAS wild-type protein
GDP-bound NRAS wild-type protein, sequence (P01111 whole entry): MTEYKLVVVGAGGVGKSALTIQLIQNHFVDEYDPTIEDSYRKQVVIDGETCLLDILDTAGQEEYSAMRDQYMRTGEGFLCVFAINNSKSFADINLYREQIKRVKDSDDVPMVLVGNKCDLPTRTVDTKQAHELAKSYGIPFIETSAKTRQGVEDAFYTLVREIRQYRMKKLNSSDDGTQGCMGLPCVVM

[3] = biological target: GDP-bound KRAS wild-type protein (Homo sapiens, UniProt P01116); test: Binding to KRAS by surface plasmon resonance (SPR), Single Cycle Kinetics; details: SPR, Single Cycle Kinetics, GDP-bound KRAS wild-type protein; read-out: KRAS KD
GDP-bound KRAS wild-type protein, sequence (P01116 whole entry): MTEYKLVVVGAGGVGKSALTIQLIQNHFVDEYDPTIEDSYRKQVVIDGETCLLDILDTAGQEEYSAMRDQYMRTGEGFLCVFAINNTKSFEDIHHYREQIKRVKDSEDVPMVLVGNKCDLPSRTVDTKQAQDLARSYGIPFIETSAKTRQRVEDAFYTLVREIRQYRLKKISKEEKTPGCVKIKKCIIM

GDP-bound HRAS wild-type protein, sequence (P01112 whole entry): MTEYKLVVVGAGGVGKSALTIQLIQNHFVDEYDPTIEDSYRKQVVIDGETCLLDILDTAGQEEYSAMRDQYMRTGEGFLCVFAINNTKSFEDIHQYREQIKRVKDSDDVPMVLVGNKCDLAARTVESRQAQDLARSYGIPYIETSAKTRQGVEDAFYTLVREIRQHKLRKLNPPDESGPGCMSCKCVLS

Structure (SMILES) | HRAS/KRAS (ratio of KD value for HRAS to KD value for KRAS) [1] | NRAS/KRAS (ratio of KD value for NRAS to KD value for KRAS) [2] | Kd [3]
CCC[C@H]1C(=O)N[C@@H](C2CCCC2)C(=O)N(C)CC(=O)N(C)[C@H]2C/C=C\CCN(C2=O)[C@@H](Cc2ccc(C(F)(F)F)cc2)C(=O)N(C)CC(=O)N[C@@H](CCc2ccc(C(F)(F)F)c(Cl)c2)C(=O)N2C[C@H](OCC)C[C@H]2C(=O)NC2(CC(C)(C)C2)C(=O)N(C)[C@@H](CC(C)(C)C)C(=O)N(C)[C@H](C(=O)N(C)C)CC(=O)N1C [PP2971] | A (a compound having 10 or more and less than 20 is denoted as A) | A (a compound having 10 or more and less than 20 is denoted as A) | 0.19 nM
CCC[C@H]1C(=O)N[C@@H]([C@@H](C)CC)C(=O)N(C)CC(=O)N(C)[C@H]2C/C=C\CCN(C2=O)[C@@H](Cc2ccc(C(F)(F)F)cc2)C(=O)N(C)CC(=O)N[C@@H](CCc2ccc(C(F)(F)F)c(Cl)c2)C(=O)N2C[C@H](OCC)C[C@H]2C(=O)NC2(CC(C)(C)C2)C(=O)N(C)[C@@H]([C@@H](C)CC)C(=O)N(C)[C@H](C(=O)N(C)C)CC(=O)N1C [PP2973] | A (a compound having 10 or more and less than 20 is denoted as A) | A (a compound having 10 or more and less than 20 is denoted as A) | 0.18 nM
CCC[C@H]1C(=O)N[C@@H]([C@@H](C)CC)C(=O)N(C)CC(=O)N(C)[C@H]2C/C=C\CCN(C2=O)[C@@H](Cc2ccc(C(F)(F)F)cc2)C(=O)N(C)CC(=O)N[C@@H](CCc2ccc(C(F)(F)F)c(Cl)c2)C(=O)N2C[C@H](OCC)C[C@H]2C(=O)NC2(CC(C)(C)C2)C(=O)N(C)[C@@H](CC(F)(F)F)C(=O)N(C)[C@H](C(=O)N(C)C)CC(=O)N1C [PP2975] | A (a compound having 10 or more and less than 20 is denoted as A) | A (a compound having 10 or more and less than 20 is denoted as A) | 0.96 nM
CCC[C@H]1C(=O)N[C@@H]([C@@H](C)CC)C(=O)N(C)CC(=O)N(C)[C@H]2C/C=C\CCN(C2=O)[C@@H](Cc2ccc(C(F)(F)F)cc2)C(=O)N(C)CC(=O)N[C@@H](CCc2ccc(C(F)(F)F)c(Cl)c2)C(=O)N2C[C@H](OCC)C[C@H]2C(=O)NC2(CC(C)(C)C2)C(=O)N(C)[C@@H](CC(C)C)C(=O)N(C)[C@H](C(=O)N(C)C)CC(=O)N1C [PP2977] | A (a compound having 10 or more and less than 20 is denoted as A) | A (a compound having 10 or more and less than 20 is denoted as A) | 0.3 nM
CCC[C@H]1C(=O)N[C@@H]([C@@H](C)CC)C(=O)N(C)CC(=O)N(C)[C@H]2C/C=C\CCN(C2=O)[C@@H](Cc2ccc(C(F)(F)F)cc2)C(=O)N(C)CC(=O)N[C@@H](CCc2ccc(C(F)(F)F)c(Cl)c2)C(=O)N2CC3(CC3)C[C@H]2C(=O)NC2(CC(C)(C)C2)C(=O)N(C)[C@@H](CC(C)(C)C)C(=O)N(C)[C@H](C(=O)N(C)C)CC(=O)N1C [PP2979] | B (a compound having 3 or more and less than 10 is denoted as B) | A (a compound having 10 or more and less than 20 is denoted as A) | 0.28 nM
C#CC[C@H]1C(=O)N[C@@H]([C@@H](C)CC)C(=O)N(C)CC(=O)N(C)[C@H]2C/C=C\CCN(C2=O)[C@@H](Cc2ccc(C(F)(F)F)cc2)C(=O)N(C)CC(=O)N[C@@H](CCc2ccc(C(F)(F)F)c(Cl)c2)C(=O)N2CC3(CC3)C[C@H]2C(=O)NC2(CC(C)(C)C2)C(=O)N(C)[C@@H](C2CCCC2)C(=O)N(C)[C@H](C(=O)N(C)C)CC(=O)N1C [PP2980] | B (a compound having 3 or more and less than 10 is denoted as B) | A (a compound having 10 or more and less than 20 is denoted as A) | 0.23 nM
CCC[C@H]1C(=O)N[C@@H](C2CCCC2)C(=O)N(C)CC(=O)N(C)[C@H]2C/C=C\CCN(C2=O)[C@@H](Cc2ccc(C(F)(F)F)cc2)C(=O)N(C)CC(=O)N[C@@H](CCc2ccc(C(F)(F)F)c(Cl)c2)C(=O)N2CC3(CC3)C[C@H]2C(=O)NC2(CC(C)(C)C2)C(=O)N(C)[C@@H](CC(C)(C)C)C(=O)N(C)[C@H](C(=O)N(C)C)CC(=O)N1C [PP2981] | A (a compound having 10 or more and less than 20 is denoted as A) | AA (a compound having 20 or more is denoted as AA) | 0.31 nM
C#CC[C@H]1C(=O)N[C@@H]([C@@H](C)CC)C(=O)N(C)CC(=O)N(C)[C@H]2C/C=C\CCN(C2=O)[C@@H](Cc2ccc(C)cc2)C(=O)N(C)CC(=O)N[C@@H](CCc2ccc(C(F)(F)F)c(Cl)c2)C(=O)N2CC3(CC3)C[C@H]2C(=O)NC2(CC(C)(C)C2)C(=O)N(C)[C@@H](C2CCCC2)C(=O)N(C)[C@H](C(=O)N(C)C)CC(=O)N1C [PP2982] | A (a compound having 10 or more and less than 20 is denoted as A) | A (a compound having 10 or more and less than 20 is denoted as A) | 0.16 nM
CCC[C@H]1C(=O)N[C@@H]([C@@H](C)CC)C(=O)N(C)CC(=O)N(C)[C@H]2C/C=C\CCN(C2=O)[C@@H](Cc2ccc(C(F)(F)F)cc2)C(=O)N(C)CC(=O)N[C@@H](CCc2ccc(C(F)(F)F)c(Cl)c2)C(=O)N2CC3(CC3)C[C@H]2C(=O)NC2(CC(C)(C)C2)C(=O)N(C)[C@@H]([C@@H](C)CC)C(=O)N(C)[C@H](C(=O)N(C)C)CC(=O)N1C [PP2983] | A (a compound having 10 or more and less than 20 is denoted as A) | AA (a compound having 20 or more is denoted as AA) | 0.5 nM
CCC[C@H]1C(=O)N[C@@H](C2CCCC2)C(=O)N(C)CC(=O)N(C)[C@H]2C/C=C\CCN(C2=O)[C@@H](Cc2ccc(C(F)(F)F)cc2)C(=O)N(C)CC(=O)N[C@@H](CCc2ccc(C(F)(F)F)c(Cl)c2)C(=O)N2C[C@H](OCC)C[C@H]2C(=O)NC2(CC(C)(C)C2)C(=O)N(C)[C@@H](C2CCCC2)C(=O)N(C)[C@H](C(=O)N(C)C)CC(=O)N1C [PP2984] | B (a compound having 3 or more and less than 10 is denoted as B) | A (a compound having 10 or more and less than 20 is denoted as A) | 0.2 nM
CCC[C@H]1C(=O)N[C@@H](C2CCCC2)C(=O)N(C)CC(=O)N(C)[C@H]2C/C=C\CCN(C2=O)[C@@H](Cc2ccc(C(F)(F)F)cc2)C(=O)N(C)CC(=O)N[C@@H](CCc2ccc(C(F)(F)F)c(Cl)c2)C(=O)N2CC3(CC3)C[C@H]2C(=O)NC2(CC(C)(C)C2)C(=O)N(C)[C@@H](C2CCCC2)C(=O)N(C)[C@H](C(=O)N(C)C)CC(=O)N1C [PP2986] | A (a compound having 10 or more and less than 20 is denoted as A) | AA (a compound having 20 or more is denoted as AA) | 0.34 nM
CCC[C@H]1C(=O)N[C@@H]([C@@H](C)CC)C(=O)N(C)CC(=O)N(C)[C@H]2C/C=C\CCN(C2=O)[C@@H](Cc2ccc(C(F)(F)F)cc2)C(=O)N(C)CC(=O)N[C@@H](CCc2ccc(C(F)(F)F)c(Cl)c2)C(=O)N2CC3(CC3)C[C@H]2C(=O)NC2(CC(C)(C)C2)C(=O)N(C)[C@@H](CC(C)C)C(=O)N(C)[C@H](C(=O)N(C)C)CC(=O)N1C [PP2987] | A (a compound having 10 or more and less than 20 is denoted as A) | AA (a compound having 20 or more is denoted as AA) | 0.66 nM
